Source: patent US20220142977A1, “METHODS OF TREATING CONDITIONS RELATED TO THE S1P1 RECEPTOR” (ARENA PHARMACEUTICALS, INC., priority 2019, published 2022)
Structures can show the parent of a compound that is named as a salt.

Columns and labels:
[1] = test system: patients with moderate to severe ulcerative colitis; assay: Randomized, double-blind, placebo-controlled dose-ranging study in ulcerative colitis: efficacy (Mayo scores, endoscopic improvement, remission); format: in vivo, human; settings: for improvement in 2-component Mayo Score (0 to 6) relative to placebo / improvement in Total Mayo Score (0 to 12) relative to placebo: Week 12
Description: A randomized, double-blind, placebo-controlled, parallel-group, dose-ranging study to assess safety and efficacy of two orally administered doses (1 mg and 2 mg) of Compound 1 in patients with ulcerative colitis was conducted. The table below provides a summary of demographic data by treatment group.
Patients were randomized into a double-blind, placebo-controlled study to receive once daily (q.d.) doses of the L-arginine salt of Compound 1 (1 mg or 2 mg) or matching placebo in a 1:1:1 ratio for 12 weeks. The trial enrolled 156 patients with moderate to severe ulcerative colitis (3-component Mayo score of 4-9 that includes endoscopic subscore ≥2, rectal bleeding score ≥1).
The treatment formulation was composed of immediate-release, hard gelatin capsules containing L-arginine salt of Compound 1. The placebo was composed of hard gelatin capsules containing microcrystalline cellulose.
Patients were instructed to take their capsule on an empty stomach (overnight fast of approximately 8 hours) and to avoid eating for approximately 1 hour after dosing.
The primary objective of this proof-of-concept study was to determine the effect of treatment with the L-arginine salt of Compound 1 in changing 3-component Mayo Clinic score (score ranging from 0 to 9, including stool frequency, rectal bleeding and findings on endoscopy) at 12 weeks.
Secondary endpoints were the proportion of patients who achieve endoscopic improvement at Week 12; change in 2-component Mayo Score (score ranging from 0 to 6, including rectal bleeding and findings on endoscopy) at Week 12; and change in Total Mayo Score (score ranging from 0 to 12, including stool frequency, rectal bleeding, findings on endoscopy, and physician global assessment) at Week 12.
Exploratory endpoints included change from baseline in lymphocyte counts at Weeks 1, 2, 4, 8, and 12; proportion of patients achieving clinical remission at Week 12; and proportion of patients who achieve clinical response at Week 12.
ANCOVA model, adjusted for current oral corticosteroid use, prior exposure to TNF-alpha antagonists, and baseline value, was used to estimate changes in Mayo Clinic Score. Mantel-Haenszel method (estimated treatment difference by adjusting current oral corticosteroid use and prior exposure to TNF-alpha antagonists) used to estimate proportion difference for dichotomous parameters. Missing individual Mayo subscores impacting efficacy measures were imputed using multiple imputation methodology with observed case analysis for sensitivity. Statistical testing was pre-specified as one-sided with p<0.025 reflecting conventional statistical significance. Hierarchical closed testing procedure for primary and secondary endpoints at 0.05 alpha level was used.

[2] = test system: patients with moderate to severe ulcerative colitis; assay: Same study: safety and tolerability (TEAEs, heart rate, AV conduction, LFTs, infections); format: in vivo, human

Row | SMILES | improvement in individuals with prior vedolizumab use or a history of pancolitis (subgroup analyses) ([1]; subgroups, 2 mg, week 12 (FIGS. 3A-3D)) | serious adverse events (SAEs), % of patients ([2]; 2 mg, placebo 11.1%) [%] | heart rate on hourly ECGs (in words) ([2]; Day 1, both 1 mg and 2 mg groups) | mean change in heart rate on hourly ECGs ([2]; Day 1, either group (1 mg, 2 mg), any timepoint) [bpm] | severity of adverse events in infections and infestations ([2]; assessed by investigators, majority upper respiratory tract infections) | increases in liver function tests (LFTs) compared to placebo ([2]; in vivo) | reports of macular edema ([2]; in vivo) | reports of pulmonary function test abnormalities ([2]; in vivo) | serious adverse events related to heart rate changes or AV block ([2]; in vivo) | discontinuations from study related to bradycardia or AV block ([2]; throughout the study) | impact on heart rate and AV conduction ([2]; throughout the study) | improvement in 3-component Partial Mayo Score (0 to 9) relative to placebo ([1]; 1 mg q.d. oral, week 12, p=0.146, not significant) | improvement in 2-component Mayo Score (0 to 6) relative to placebo ([1]; 1 mg, p=0.086, not significant) | improvement in Total Mayo Score (0 to 12) relative to placebo ([1]; 1 mg, p=0.128, not significant) | improvement in 3-component Partial Mayo Score (0 to 9) relative to placebo ([1]; 2 mg q.d. oral, week 12, p=0.009) | improvement in Total Mayo Score (0 to 12) relative to placebo ([1]; 2 mg, p=0.010) | improvement in 2-component Mayo Score (0 to 6) relative to placebo ([1]; dose not printed (2 mg implied), p=0.002) | primary and all secondary endpoints ([1]; high dose (2 mg), week 12)
1 | O=C(O)C[C@H]1CCc2c1[nH]c1ccc(OCc3ccc(C4CCCC4)c(C(F)(F)F)c3)cc21 [Compound 1, (R)-2-(7-(4-cyclopentyl-3-(trifluoromethyl)benzyloxy)-1,2,3,4-tetrahydrocyclopenta[b]indol-3-yl)acetic acid] | improvement is not seen | – | – | – | – | – | – | – | – | – | – | – | – | – | – | – | – | –
2 | O=C(O)C[C@H]1CCc2c1[nH]c1ccc(OCc3ccc(C4CCCC4)c(C(F)(F)F)c3)cc21 [L-arginine salt of Compound 1] | – | 0 | mild decrease | < 10 | mild or moderate | no increases | no reports | no reports | No serious adverse events | no discontinuations | low | 0.43 | 0.39 | 0.60 | 0.99 | 1.27 | 0.84 | achieved the primary and all secondary endpoints with statistical significance
